Reference: patent US20230346820A1, “METHODS AND COMPOSITIONS FOR THE TREATMENT OF SARS-COV-2” (priority 2020, published 2023)
Like-named read-outs stand apart in the source and are kept apart here.

Tests used:
HeLa-ACE2 cells = test: cells; format: cell-based, human; conditions: Homo sapiens, HeLa-ACE2, read-out: HeLa-ACE-2 EC50 [μM] (Geomeans, n ≥ 2)
SARS-CoV-2 [1] = system: SARS-CoV-2
SARS-CoV-2 [2] = system: SARS-CoV-2; remark: listed apart in the source
in vitro [3] = conditions: human
in vitro [4] = conditions: human; remark: listed apart in the source
Method: To assess cell viability, 2 μL of 50% Cell-Titer Glo (Promega No G7573) diluted in water was added to the cells and luminescence measured on an EnVision Plate Reader (Perkin Elmer).
Data analysis. […] Primary in vitro screen and the host cell cytotoxicity counter screen data were uploaded to Genedata Screener, Version 16.0.3-Standard. […] For the uninfected host cell cytotoxicity counter screens, 40 μM puromycin (Sigma) was used as the positive (inhibitory) control in HeLa-ACE2, HepG2 and HEK293T cells, and 30 μM puromycin (Sigma) was used as the positive (inhibitory) control for Calu-3 cells. For dose response experiments compounds were tested in technical triplicates on different assay plates and dose curves were fitted with the four parameter Hill Equation. Technical replicate data were analyzed using median condensing. Geometric means and geometric standard deviations are reported for compound activities (EC50s and CC50s) obtained in multiple independent biological experiments. […] Geometric means were calculated by computing the logarithm (base 10) of all values, calculating the mean of these logarithms, and taking the antilog of that mean. Geometric standard deviations were computed by taking the standard deviation of the log-transformed individual values and taking the antilog of that standard deviation. The geometric standard deviation is a unitless ratio and reported as ×÷ instead of +/−.

SARS-CoV-2 [5] = test: microbe, parasite or virus in culture
SARS-CoV-2 [6] = test: microbe, parasite or virus in culture; conditions: Severe acute respiratory syndrome coronavirus 2, Calu-3, 48 h, read-out: Calu-3 CoV-2 EC50 [μM]
SARS-CoV-2 [7] = test: Checkerboard synergy study with remdesivir (ZIP model, synergyfinder); format: cell-based; conditions: for Synergy score with remdesivir (δ): Table 3
[8] = CC50 [μM] (Geomeans, n ≥ 2 except where indicated: *n = 1)
[9] = HeLa-ACE2 Uninfected Tox CC50 [μM]
[10] = Severe acute respiratory syndrome coronavirus 2, HeLa-ACE2, 24 h, read-out: CoV-2 EC50 [μM] (Geomeans, n ≥ 2)
[11] = Severe acute respiratory syndrome coronavirus 2, HeLa-ACE2, read-out: HeLa-ACE2 CoV-2 EC50 [μM]
[12] = Severe acute respiratory syndrome coronavirus 2, HeLa-ACE2, read-out: SARS CoV-2 EC50 (μM)
[13] = HeLa-ACE2 Uninfected Tox CC50 [μM], Table 4, aggregated data, Geomean, n = 3
[14] = Severe acute respiratory syndrome coronavirus 2, HeLa-ACE2, read-out: HeLa-ACE2 CoV-2 EC50 [μM], Table 4, aggregated data, Geomean, n = 3

| Compound | HeLa-ACE2 CC50/CoV-2 EC50 (SARS-CoV-2 [1]) | Calu3 SI CC50/CoV-2 EC50 (SARS-CoV-2 [2]; Table 4) | CC50 (in vitro [3]; [8]) [µM] | CC50 (in vitro [4]) [nM] | EC50 (SARS-CoV-2 [5]; [10]) [µM] | EC50 (SARS-CoV-2 [5]; [11]) [µM] | EC50 (SARS-CoV-2 [6]) [µM] | HeLa-ACE2 SI CC50/CoV-2 EC50 (SARS-CoV-2 [1]; Table 4) | also measured |
| --- | --- | --- | --- | --- | --- | --- | --- | --- | --- |
| C[C@H]1O[C@@H](O[C@H]2[C@@H](O)C[C@@H](O[C@@H]3[C@@H](O)C[C@H](O[C@H]4CC[C@@]5(C)[C@H](CC[C@@H]6[C@@H]5C[C@@H](O)[C@]5(C)[C@@H](C7=CC(=O)OC7)CC[C@]65O)C4)O[C@@H]3C)O[C@@H]2C)C[C@H](O)[C@@H]1O (stereo in doubt) [Digoxin] | 0.72 | >29.80 | 0.12 | > 5040 | 0.166 | 0.166 | 0.17 | – | EC50 (HeLa-ACE2 cells): 0.325 µM; HeLa-ACE2 SI CC50/CoV-2 EC50 (SARS-CoV-2 [1]): 0.72; CC50 (in vitro [3]; [9]): 0.12 µM |
| CN1CCN(c2ccc(C(=O)NCc3cnc(C#N)nc3NCC(C)(C)C)cc2)CC1 [Dutacatib] | >13.43 | – | > 36.1 | – | 2.69 | – | – | – | Synergy score with remdesivir (δ) (SARS-CoV-2 [7]): 2.955; CC50 (in vitro [3]; Uninfected HeLa-ACE2 CC50 (μM)): > 36.1 µM; EC50 (SARS-CoV-2 [5]; [12]): 2.69 µM |
| Nc1nc(N)c2nc(CCc3ccc(C(=O)N[C@@H](CCC(=O)O)C(=O)O)cc3)cnc2n1 [10-deazaaminopterin] | – | – | – | – | – | – | – | – | interaction with remdesivir (SARS-CoV-2 [7]): synergized; maximal efficacy (SARS-CoV-2 [7]; compound alone, over the range of concentrations tested): 40%; maximal efficacy (SARS-CoV-2 [7]; with addition of EC2 of remdesivir): ~65%; maximal efficacy (SARS-CoV-2 [7]; with addition of EC24 of remdesivir): > 80% |
| CCCCC1CCc2cc(O)cc3c(CCN4CCN(c5cc(C)ccn5)CC4)c(C)n1c23 (centres unmarked) [KC 11404] | >8.39 | – | > 20.9 | – | 2.5 | – | – | – | Synergy score with remdesivir (δ) (SARS-CoV-2 [7]): −2.817; CC50 (in vitro [3]; Uninfected HeLa-ACE2 CC50 (μM)): > 20.9 µM; EC50 (SARS-CoV-2 [5]; [12]): 2.5 µM |
| CCN(CC)CCCNc1ccnc2cc(Cl)ccc12 [AQ-13] | 32.34 | – | 25.9 | – | 0.8 | – | – | – | Synergy score with remdesivir (δ) (SARS-CoV-2 [7]): −1.77; EC50 (SARS-CoV-2 [5]; [12]): 0.8 µM |
| COC(=O)[C@@]12OC[C@]34[C@H]([C@@H](O)[C@@H]1O)[C@@]1(C)CC(=O)C(O)=C(C)[C@@H]1C[C@H]3OC(=O)[C@H](OC(=O)/C=C(\C)C(C)C)[C@@H]24 [Bruceantin] | – | 50.22 | – | 973 | – | – | 0.019 | 20.18 | CC50 (in vitro [3]; [13]): 0.117 µM; EC50 (SARS-CoV-2 [5]; [14]): 0.006 µM |
| CC[C@H]1CN2CCc3cc(OC)c(OC)cc3[C@@H]2C[C@@H]1C[C@H]1NCCc2cc(O)c(OC)cc21 [Cephaeline] | – | 34.84 | – | – | – | 0.017 | 0.142 | 12.66 | CC50 (in vitro [3]): 0.212 µM; CC50 at 48 h (in vitro [4]): 4960 nM |
| C[C@@H]1C[C@@H]([C@H](O)CC2CC(=O)NC(=O)C2)C(=O)[C@@H](C)C1 [Cycloheximide] | – | 12.50 | – | – | – | 0.634 | 0.195 | 2.32 | CC50 (in vitro [3]): 1.47 µM; CC50 at 48 h (in vitro [4]): 2440 nM |
| CCCCCCCCCCCCCC(=O)O[C@@H]1[C@@H](C)[C@@]2(O)[C@@H](C=C(CO)C[C@]3(O)C(=O)C(C)=C[C@@H]23)[C@@H]2C(C)(C)[C@]12OC(C)=O [Phorbol 12-myristate 13-acetate] | – | 1384.37 | – | 22500 | – | – | 0.016 | 2.89 | CC50 (in vitro [3]; [13]): 0.201 µM; EC50 (SARS-CoV-2 [5]; [14]): 0.07 µM |
| COc1ccc2c(c1)[C@]1(CC1c1ccc3c(/C=C/c4ccc(CN5C[C@@H](C)O[C@@H](C)C5)cc4)n[nH]c3c1)C(=O)N2 (some centres unmarked) [CFI-400945] | <1.02 | >5.88 | 7.18 | > 19800 | > 7 | > 7 | 3.36 | – | EC50 (HeLa-ACE2 cells): > 0.117 µM; HeLa-ACE2 SI CC50/CoV-2 EC50 (SARS-CoV-2 [1]): <1.02; CC50 (in vitro [3]; [9]): 7.18 µM |
| CC[C@H]1CN2CCc3cc(OC)c(OC)cc3[C@@H]2C[C@@H]1C[C@H]1NCCc2cc(OC)c(OC)cc21 [Emetine] | – | 19.97 | – | 8870 | – | – | 0.444 | 5.66 | CC50 (in vitro [3]; [13]): 0.34 µM; EC50 (SARS-CoV-2 [5]; [14]): 0.06 µM |
| COc1ccc2c(c1)c(CC(=O)NO)c(C)n2C(=O)c1ccc(Cl)cc1 [oxametacin] | – | – | – | 17700 | – | 9.14 | 3.56 | – | HeLa-ACE2 SI CC50/CoV-2 EC50 (SARS-CoV-2 [1]): 0.64; Calu3 SI CC50/CoV-2 EC50 (SARS-CoV-2 [2]): 4.98; CC50 (in vitro [3]; [9]): 5.87 µM |
